{
  "source": "patent US20070232609A1",
  "about": "“Novel Antiparasitic Combination of Active Compounds” (BAYER HEALTHCARE AG, priority 2004, published 2007)",
  "test_system": "Eimeria acervulina, E. maxima, E. tenella",
  "assay": "Cage experiment on coccidiosis/chicks",
  "assay_type": "in vivo",
  "conditions": "for Mortality %: day -3 to 8 (9) p.i.; for % efficacy (total score): 0% no action, 100% full action; for Dropping score / Lesion score: assessment 0 to 6",
  "experimental": "The efficacy of the compounds according to the invention can be confirmed, for example, in cage experiments with the following experimental arrangement, in which the animals are treated with the respective individual components and with the mixtures of the individual components.\nAn active compound-containing feed is prepared such that the required amount of active compound is basically mixed with a nutritionally balanced animal feed, e.g. with the chick feed indicated below.\nCage Experiment on Coccidiosis/Chicks\n8- to 12-day-old male chicks (e.g. LSL Brinkschulte/Senden) which have been reared coccidia-free receive the compounds according to the invention (test substances) in the concentration indicated in ppm with the feed from 3 days before (day −3) infection (=a.i.) until 8 (9) days after infection (=p.i.). 3 animals are kept in each cage. One or more groups of this type are employed per dose. Infection is carried out by means of a stomach tube directly into the crop with approximately 100 000 sporulated oocysts of Eimeria acervulina and with approximately 30 000 oocysts each of E. maxima and 40 000 sporulated oocysts of E. tenella. These are highly virulent strains. The exact infection dose is adjusted so that, if possible, one of three experimentally infected untreated chicks dies due to the infection. For assessment of the efficacy, the following criteria are taken into account: weight increase from the start of the experiment to the end of the experiment, death rate due to infection, macroscopic assessment of the faeces with respect to diarrhea and excretion of blood on days 5 and 7 p.i. (assessment 0 to 6), macroscopic assessment of the intestinal mucosa, in particular of the appendices (assessment 0 to 6) and the oocyst excretion as well as the proportion (in %) of the oocysts sporulating in the course of 24 hours. The number of oocysts in the faeces was determined with the aid of a McMaster counting chamber (see Engelbrecht and coworkers “Parasitologische Arbeitsmethoden in Medizin und Veterinärmedizin” [Parasitological Working Methods in Medicine and Veterinary Medicine], Akademie-Verlag, Berlin (1965)). The individual findings are related to the untreated non-infected control groups and a total score is calculated (cf. A. Haberkorn (1986), pp. 263 to 270 in Research in Avian Coccidiosis ed. L. R. McDougald, L. P. Joyner, P. L. Long, Proceedings of the Georgia Coccidiosis Conference, Nov. 18-20, 1985, Athens/Georgia USA).\nIn the column “ppm”, the concentration of the active compound employed in the feed is indicated in ppm.\nIn the column “mortality”, the percentage of the dead animals is indicated under % and the number of dead animals/animals employed in the experiment is indicated under n.\nIn the column “weight % of not inf. control”, the ratio of the weight of the treated animals to the weight of the non-infected control group is indicated.\nIn the columns “dropping scores”, “lesion score” and “oocyst control”, individual details of the action are given.\nIn the column “% efficacy”, the total score is assessed; 0% means no action, 100% means full action.",
  "data": [
    {"smiles": "FC(F)(F)c1nc2c(Cl)cc3c(c2[nH]1)OC(F)(F)C(F)(F)O3", "note": "[(I-A)*]", "values": [
      {"measurement": "Mortality n (dead animals/animals employed)", "setting": "1 ppm in feed", "result": "0/3"},
      {"measurement": "Oocysts in % of inf. control", "setting": "1 ppm in feed", "result": "36.0 % of inf. control"},
      {"measurement": "Weight in % of not inf. control", "setting": "1 ppm in feed", "result": "16 % of not inf. control"},
      {"measurement": "Mortality %", "setting": "1 ppm in feed", "result": 0, "unit": "%"},
      {"measurement": "% efficacy (total score)", "setting": "1 ppm in feed", "result": 15.7, "unit": "%"},
      {"measurement": "Dropping score", "setting": "1 ppm in feed", "result": 6},
      {"measurement": "Lesion score", "setting": "1 ppm in feed", "result": 6},
      {"measurement": "Mortality n (dead animals/animals employed)", "setting": "2.5 ppm in feed", "result": "0/3"},
      {"measurement": "Oocysts in % of inf. control", "setting": "2.5 ppm in feed", "result": "80.7 % of inf. control"},
      {"measurement": "Weight in % of not inf. control", "setting": "2.5 ppm in feed", "result": "41 % of not inf. control"},
      {"measurement": "Mortality %", "setting": "2.5 ppm in feed", "result": 0, "unit": "%"},
      {"measurement": "% efficacy (total score)", "setting": "2.5 ppm in feed", "result": 12.3, "unit": "%"},
      {"measurement": "Dropping score", "setting": "2.5 ppm in feed", "result": 6},
      {"measurement": "Lesion score", "setting": "2.5 ppm in feed", "result": 6}
    ]},
    {"smiles": "N#CC(c1ccc(Cl)cc1)c1c(Cl)cc(-n2ncc(=O)[nH]c2=O)cc1Cl", "note": "(stereo not shown) [Diclazuril]", "values": [
      {"measurement": "Mortality n (dead animals/animals employed)", "setting": "0.05 ppm in feed", "result": "0/3"},
      {"measurement": "Oocysts in % of inf. control", "setting": "0.05 ppm in feed", "result": "17.0 % of inf. control"},
      {"measurement": "Weight in % of not inf. control", "setting": "0.05 ppm in feed", "result": "86 % of not inf. control"},
      {"measurement": "Mortality %", "setting": "0.05 ppm in feed", "result": 0, "unit": "%"},
      {"measurement": "% efficacy (total score)", "setting": "0.05 ppm in feed", "result": 69.3, "unit": "%"},
      {"measurement": "Dropping score", "setting": "0.05 ppm in feed", "result": 0},
      {"measurement": "Lesion score", "setting": "0.05 ppm in feed", "result": 0},
      {"measurement": "Mortality n (dead animals/animals employed)", "setting": "0.1 ppm in feed", "result": "0/3"},
      {"measurement": "Oocysts in % of inf. control", "setting": "0.1 ppm in feed", "result": "14.0 % of inf. control"},
      {"measurement": "Weight in % of not inf. control", "setting": "0.1 ppm in feed", "result": "92 % of not inf. control"},
      {"measurement": "Mortality %", "setting": "0.1 ppm in feed", "result": 0, "unit": "%"},
      {"measurement": "% efficacy (total score)", "setting": "0.1 ppm in feed", "result": 77.0, "unit": "%"},
      {"measurement": "Dropping score", "setting": "0.1 ppm in feed", "result": "0-2"},
      {"measurement": "Lesion score", "setting": "0.1 ppm in feed", "result": 0}
    ]}
  ]
}
